# Structures can show the parent of a compound that is named as a salt.
# What was measured:
# σ2-receptor = target: T1, σ2-receptor (Mus musculus, UniProt Q8VD00); experiment: Sigma-2 receptor binding, [3H]-DTG, brains from sigma-1 knockout mice; settings: for inhibition at 1 µM: 2 h, tested compound at 10^-6 M, [3H]-DTG 3 nM, read-out: binding sigma-2 (*) % of radioactively labeled compound replaced by the tested compound; for Ki: [3H]-DTG, sigma-1 knockout mouse brain
# T1 construct: brains from sigma receptor type I (sigma-1) knockout mice were homogenized; from tissue; host or cells: brain membranes of sigma-1 knockout mice
# T1 sequence (Q8VD00 1-176): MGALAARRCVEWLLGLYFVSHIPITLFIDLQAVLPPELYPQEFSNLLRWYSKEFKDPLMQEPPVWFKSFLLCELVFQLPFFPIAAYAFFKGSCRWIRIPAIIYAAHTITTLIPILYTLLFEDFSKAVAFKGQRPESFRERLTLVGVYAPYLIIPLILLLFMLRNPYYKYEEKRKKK
# Procedure: In brief, brains from sigma receptor type I (sigma-1) knockout mice were homogenized in a volume of 10 mL/g tissue net weight of ice-cold 10 mM Tris-HCl, pH 7.4, containing 320 mM sucrose (Tris-sucrose buffer) with a Potter-Elvehjem homogenizer (10 strokes at 500 r.p.m.) The homogenates were then centrifuged at 1000 g for 10 min at 4° C., and the supernatants were saved. The pellets were resuspended by vortexing in 2 mL/g ice-cold Tris-sucrose buffer and centrifuged again at 1000 g for 10 min. The combined 1000 g supernatants were centrifuged at 31000 g for 15 min at 4° C. The pellets were resuspended by vortexing in 3 mL/g 10 mM Tris-HCl, pH 7.4, and the suspension was kept at 25° C. for 15 min.
# The assay tubes contained 10 μL of [^3H]-DTG (final concentration of 3 nM), 400 μL of the tissue suspension (5.3 mL/g in 50 mM Tris-HCl, pH 8.0) to a final assay volume of 0.5 mL. Non-specific binding was defined by addition of a final concentration of 1 μM haloperidol. […] Filters were washed with three times with 5 mL volumes of cold Tris-HCl buffer (10 mM, pH 8.0). Following addition of scintillation cocktail samples were allowed to equilibrate overnight.
# σ1-receptor = target: T2, σ1-receptor (Cavia porcellus, UniProt Q60492); experiment: Sigma-1 receptor binding, [3H](+)-pentazocine, brain membranes; design: species or system guinea pig; settings: for inhibition at 1 µM: 2.5 h, tested compound at 10^-6 M, [3H](+)-pentazocine 0.5 nM, read-out: binding sigma-1 (*) % of radioactively labeled compound replaced by the tested compound; for Ki: [3H](+)-pentazocine, guinea pig brain membranes, read-out: binding sigma-1 Ki
# T2 construct: guinea pig brains were homogenized; from tissue; host or cells: guinea pig brain membranes
# T2 sequence (Q60492 whole entry): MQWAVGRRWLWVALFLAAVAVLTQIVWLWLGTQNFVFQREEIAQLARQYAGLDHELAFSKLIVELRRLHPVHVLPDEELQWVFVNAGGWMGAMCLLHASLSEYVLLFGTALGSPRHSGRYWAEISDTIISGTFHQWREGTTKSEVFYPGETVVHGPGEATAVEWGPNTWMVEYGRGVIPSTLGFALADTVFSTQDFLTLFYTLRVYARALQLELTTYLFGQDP
SMILES,melting point [°C],inhibition at 1 µM (σ2-receptor) [%],inhibition at 1 µM (σ1-receptor) [%],Ki (σ1-receptor) [nM],Ki (σ2-receptor) [nM]
"Clc1ccc(-n2ncc3c2CCCC3CCN2CCOCC2)cc1Cl.O=C(O)C(=O)O (stereo not shown) [Example 7, 1-(3,4-dichlorophenyl)-4,5,6,7-tetrahydro-4-(2-(morpholin-4-yl)ethyl)-1H-indazole oxalate]",148 to 149.8,98.1,100,4.3,
"C[C@@H]1CN(CCC2CCCc3c2cnn3-c2ccc(F)cc2)C[C@H](C)O1.O=C(O)C(=O)O (stereo partly drawn) [Example 68, cis-1-(4-fluorophenyl)-4,5,6,7-tetrahydro-4-(2-(2,6-dimethylmorpholin-4-yl)ethyl)-1H-indazole oxalate]",164 to 169,99.8,98,14.9,35.2
Cn1ncc2c1CCCC2CCN1CCOCC1.O=C(O)C(=O)O (stereo not shown),137.7 to 139.3,,,,
"Fc1ccc(-n2ncc3c2CCCC3CCN2Cc3ccccc3C2)cc1 (stereo not shown) [Example 70, 1-(4-fluorophenyl)-4,5,6,7-tetrahydro-4-(2-(isoindolin-2-yl)ethyl)-1H-indazole]",,108,100,16.2,14.4
"O=C(O)C(=O)O.c1ccc(-n2ncc3c2CCC3CCN2CCOCC2)cc1 (stereo not shown) [Example 31, 1,4,5,6-tetrahydro-4-(2-(morpholin-4-yl)ethyl)-1-phenylcyclopenta[c]pyrazole oxalate]",159 to 161.8,88.7,101,1.2,17.5
"Cn1ncc2c1CCCC2CCN1Cc2ccccc2C1.O=C(O)C(=O)O (stereo not shown) [Example 60, 4,5,6,7-tetrahydro-4-(2-(isoindolin-2-yl)ethyl)-1-methyl-1H-indazole oxalate]",150 to 151,88.2,104,3.1,18.8
"CN(CCC1CCc2c1cnn2-c1ccccc1)Cc1ccccc1 (stereo not shown) [Example 52, N-benzyl-2-(1,4,5,6-tetrahydro-1-phenylcyclopenta[c]pyrazol-4-yl)-N-methylethanamine]",,104,106,3.9,
"c1ccc(-n2ncc3c2CCC3CCN2CCCC2)cc1 (stereo not shown) [Example 40, 1,4,5,6-tetrahydro-1-phenyl-4-(2-(pyrrolidin-1-yl)ethyl)cyclopenta[c]pyrazole oxalate]",,97.3,101,3.5,
"Fc1ccc(-n2ncc3c2CCCC3CCN2CCOCC2)cc1.O=C(O)C(=O)O (stereo not shown) [Example 66, 1-(4-fluorophenyl)-4,5,6,7-tetrahydro-4-(2-(morpholin-4-yl)ethyl)-1H-indazole oxalate]",148 to 151,,98.1,2.4,
"C(/CN1CCCCCC1)=C1/CCCc2c1cnn2-c1ccccc1.O=C(O)C(=O)O [Example 16, (E)-4-(2-(azepan-1-yl)ethylidene)-4,5,6,7-tetrahydro-1-phenyl-1H-indazole oxalate]",171 to 173,93,99.9,1.5,
"c1ccc(C2CCN(CCC3CCc4c3cnn4-c3ccccc3)CC2)cc1 (stereo not shown) [Example 36, 1,4,5,6-tetrahydro-1-phenyl-4-(2-(4-phenylpiperidin-1-yl)ethyl)cyclopenta[c]pyrazole]",83 to 86,87.9,103,5.9,
"Clc1ccc(-n2ncc3c2CCCC3CCN2CCC(c3ccccc3)CC2)cc1Cl (stereo not shown) [Example 4, 1-(3,4-dichlorophenyl)-4,5,6,7-tetrahydro-4-(2-(4-phenylpiperidin-1-yl)ethyl)-1H-indazole oxalate]",,98,100,10.6,316
"Clc1ccc(-n2ncc3c2CCCC3CCN2CCC(c3ccccc3)CC2)cc1Cl (stereo not shown) (as salt: oxalate) [Example 4, 1-(3,4-dichlorophenyl)-4,5,6,7-tetrahydro-4-(2-(4-phenylpiperidin-1-yl)ethyl)-1H-indazole oxalate]",133 to 134,,,,
O=C(O)C(=O)O.c1ccc(CN2CCN(CCC3CCc4c3cnn4-c3ccccc3)CC2)cc1 (stereo not shown),215 to 218,,,,
"C(/CN1CCC(c2ccccc2)CC1)=C1/CCCc2c1cnn2-c1ccccc1 [Example 17, (E)-4,5,6,7-tetrahydro-1-phenyl-4-(2-(4-phenylpiperidin-1-yl)ethylidene)-1H-indazole]",,83.8,100,2.5,186
"CN(CCC1CCCc2c1cnn2-c1ccc(F)cc1)Cc1ccccc1 (stereo not shown) [Example 69, N-benzyl-2-(1-(4-fluorophenyl)-4,5,6,7-tetrahydro-1H-indazol-4-yl)-N-methylethanamine]",,99.3,103,2.6,21.7

SMILES,melting point [°C],inhibition at 1 µM (σ2-receptor) [%],inhibition at 1 µM (σ1-receptor) [%],Ki (σ1-receptor) [nM],Ki (σ2-receptor) [nM]
Fc1ccc(-n2ncc3c2CCCC3CCN2Cc3ccccc3C2)cc1.O=C(O)C(=O)O (stereo not shown),176 to 179,,,,
"C(/CN1CCC(c2ccccc2)C1)=C1/CCCc2c1cnn2-c1ccccc1 (stereo not shown) [Example 24, (E)-4,5,6,7-tetrahydro-1-phenyl-4-(2-(3-phenylpyrrolidin-1-yl)ethylidene)-1H-indazole]",,103,100,1.1,49.5
"CC1CCN(CCC2CCCc3c2cnn3-c2ccccc2)CC1 (stereo not shown) [Example 94, 4,5,6,7-Tetrahydro-4-(2-(4-methylpiperidin-1-yl)ethyl)-1-phenyl-1H-indazole oxalate]",,,103,1.9,
"CN(CCC1CCCc2c1cnn2-c1ccccc1)Cc1ccccc1 (stereo not shown) [Example 54, N-benzyl-2-(4,5,6,7-tetrahydro-1-phenyl-1H-indazol-4-yl)-N-methylethanamine]",,100,105,8.7,
"O=C(O)C(=O)O.c1ccc(-n2ncc3c2CCCC3CCN2CCOCC2)cc1 (single isomer, unassigned; (+)) [Example 74, (+)-4,5,6,7-tetrahydro-4-(2-(morpholin-4-yl)ethyl)-1-phenyl-1H-indazole oxalate]",175 to 176,,,,
"c1ccc(-n2ncc3c2CCC3CCN2CCSCC2)cc1 (stereo not shown) [Example 97, 1,4,5,6-tetrahydro-1-phenyl-4-[2-(thiomorpholin-4-yl)ethyl]cyclopenta[c]pyrazole oxalate]",,,102,0.62,
O=C(O)C(=O)O.c1ccc(N2CCN(CCC3CCCc4c3cnn4-c3ccccc3)CC2)cc1 (stereo not shown),177 to 180,,,,
"c1ccc(-n2ncc3c2CCCC3CCN2CCOCC2)cc1 (stereo not shown) (as salt: oxalate) [Example 2, 4,5,6,7-tetrahydro-4-(2-(morpholin-4-yl)ethyl)-1-phenyl-1H-indazole oxalate]",150 to 151,,,,
"c1ccc(-n2ncc3c2CCC3CCN2CCCCC2)cc1 (stereo not shown) [Example 37, 1,4,5,6-tetrahydro-1-phenyl-4-(2-(piperidin-1-yl)ethyl)cyclopenta[c]pyrazole]",,79.9,102,1.1,
C(/CN1CCc2ccccc2C1)=C1/CCCc2c1cnn2-c1ccccc1.O=C(O)C(=O)O,217 to 218,,,,
"C(/CN1CCCCC1)=C1/CCCc2c1cnn2-c1ccccc1 [Example 27, (E)-4,5,6,7-tetrahydro-1-phenyl-4-(2-(piperidin-1-yl)ethylidene)-1H-indazole]",,77,99.6,7.5,
C(/CN1CCC(c2ccccc2)C1)=C1/CCCc2c1cnn2-c1ccccc1.O=C(O)C(=O)O (stereo not shown),178 to 181,,,,
"Fc1ccc(-n2ncc3c2CCCC3CCN2CCC(c3ccccc3)CC2)cc1 (stereo not shown) [Example 72, 1-(4-fluorophenyl)-4,5,6,7-tetrahydro-4-(2-(4-phenylpiperidin-1-yl)ethyl)-1H-indazole]",93 to 94.5,,,,
C(/CN1Cc2ccccc2C1)=C1/CCCc2c1cnn2-c1ccccc1,130 to 131,,,,
"CC1CCN(CCC2CCc3c2cnn3-c2ccccc2)CC1 (stereo not shown) [Example 99, 1,4,5,6-tetrahydro-4-(2-(4-methylpiperidin-1-yl)ethyl)-1-phenylcyclopenta[c]pyrazole oxalate]",,,102,1.5,
